Tests used:
IFN = assay: Cytokine Induction in Human Cells: interferon (IFN) secreted by PBMCs, A549/encephalomyocarditis bioassay; format: cell-based; conditions: 18 to 24 hours; note: call rule not given here
In short: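 Human PBMCs from healthy donors at 1.5-2×10^6 cells/mL in RPMI with 10% FBS, exposed to compounds (typically 0.1 to 100 μM, ≤1% DMSO) for 18 to 24 h at 37° C. Secreted IFN measured by A549/encephalomyocarditis virus cytopathic-effect bioassay, in alpha reference units/mL against NIH human leukocyte IFN standard.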

TNF = assay: Cytokine Induction in Human Cells: tumor necrosis factor (TNF) secreted by PBMCs, ELISA; format: cell-based; conditions: 18 to 24 hours; note: call rule not given here
In short: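 Human donor PBMCs at 1.5-2×10^6 cells/mL in RPMI with 10% FBS were exposed to compound, generally at 0.1 to 100 μM (≤1% DMSO final), for 18 to 24 h at 37 °C. Secreted TNF in supernatant was measured by ELISA and reported as pg/mL.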

interferon α = assay: Interferon (α) Induction in Human Cells (PBM's, 48 hours, A549 bioassay); format: cell-based; parameters: key: +: indicates that the compound induced interferon α at that particular concentration; −: indicates that the compound did not induce interferon α at that particular concentration; ±: indicates that the results were equivocal at that particular concentration; conditions: 48 hours incubation
Description: An in vitro human blood cell system was used to assess interferon induction by compounds of the invention. Activity is based on the measurement of interferon secreted into culture media. Interferon is measured by bioassay.
Whole blood was collected by venipuncture into EDTA vacutainer tubes. Peripheral blood mononuclear cells (PBM's) were separated from whole blood by using either LeucoPREP™ Brand Cell Separation Tubes (available from Becton Dickinson) or Ficoll-Paque® solution (available from Pharmacia LKB Biotechnology Inc, Piscataway, N.J.). The PBM's were suspended at 1×10^6/mL in RPMI 1640 media (available from GIBCO, Grand Island, N.Y.) containing 25 mM HEPES (N-2-hydroxyethylpiperazine-N′-2-ethanesulfonic acid) and L-glutamine (1% penicillin-streptomycin solution added) with 10% heat inactivated (56° C. for 30 minutes) autologous serum added. 200 μL portions of PBM suspension were added to 96 well (flat bottom) MicroTest III sterile tissue culture plates.
The compounds were solubilized in ethanol, dimethyl sulfoxide or tissue culture water then diluted with tissue culture water, 0.01N sodium hydroxide or 0.01N hydrochloric acid (The choice of solvent will depend on the chemical characteristics of the compound being tested.). Ethanol or DMSO concentration should not exceed a final concentration of 1% for addition to the culture wells. Compounds were initially tested in a concentration range of from about 0.1 μg/mL to about 5 μg/mL. Compounds which show induction at a concentration of 0.5 μg/mL were then tested in a wider concentration range.
The solution of test compound was added in a volume (less than or equal to 50 μL) to the wells containing 200 μL of diluted whole blood or of PBM's in media. Solvent and/or media was added to control wells (wells with no test compound) and as needed to adjust the final volume of each well to 250 μL. The plates were covered with plastic lids, vortexed gently and then incubated for 48 hours at 37° C. with a 5% carbon dioxide atmosphere.
Following incubation, the plates were covered with parafilm and then centrifuged at 1000 rpm for 10 to 15 minutes at 4° C. in a Damon IEC Model CRU-5000 centrifuge. Media (about 200 μL) was removed from 4 to 8 wells and pooled into 2 mL sterile freezing vials. Samples were maintained at −70° C. until analysis.
Interferon was determined by bioassay using A549 human lung carcinoma cells challenged with encephalomyocarditis. The details of the bioassay method have been described by G. L. Brennan and L. H. Kronenberg in “Automated Bioassay of Interferons in Micro-test Plates”, Biotechniques, June/July 78, 1983, incorporated herein by reference. Briefly stated the method is as follows: interferon dilutions and A549 cells are incubated at 37° C. for 12 to 24 hours. The incubated cells are infected with an inoculum of encephalomyocarditis virus. The infected cells are incubated for an additional period at 37° C. before quantifying for viral cytopathic effect. The viral cytopathic effect is quantified by staining followed by spectrophotometric absorbance measurements. Results are expressed as alpha reference units/mL based on the value obtained for NIH HU IF-L standard. The interferon was identified as essentially all interferon alpha by testing in checkerboard neutralization assays against rabbit anti-human interferon (beta) and goat anti-human interferon (alpha) using A549 cell monolayers challenged with encephalomyocarditis virus.

Row | Structure (SMILES) | IFN induction (IFN; Dose Concentration 0.1 μM) | IFN induction (IFN; Dose Concentration 1.0 μM) | IFN induction (IFN; Dose Concentration 10.0 μM) | IFN induction (IFN; Dose Concentration 100.0 μM) | melting point | TNF induction (TNF; Dose Concentration 0.1 μM) | TNF induction (TNF; Dose Concentration 1.0 μM) | TNF induction (TNF; Dose Concentration 10.0 μM) | TNF induction (TNF; Dose Concentration 100.0 μM) | Interferon (α) Induction in Human Cells (interferon α; Dose Concentration 0.01 μg/mL) | Interferon (α) Induction in Human Cells (interferon α; Dose Concentration 0.05 μg/mL) | Interferon (α) Induction in Human Cells (interferon α; Dose Concentration 0.10 μg/mL) | Interferon (α) Induction in Human Cells (interferon α; Dose Concentration 0.50 μg/mL) | Interferon (α) Induction in Human Cells (interferon α; Dose Concentration 1.0 μg/mL) | Interferon (α) Induction in Human Cells (interferon α; Dose Concentration 5.0 μg/mL) | Interferon (α) Induction in Human Cells (interferon α; Dose Concentration 10.0 μg/mL) | Interferon (α) Induction in Human Cells (interferon α; Dose Concentration 25.0 μg/mL) | Interferon (α) Induction in Human Cells (interferon α; Dose Concentration 50.0 μg/mL)
1 | CC(C)Cn1cnc2c(N)nc3c(c21)CCCN3 [Example 10, 6,7,8,9-Tetrahydro-1-(2-methylpropyl)-1H-imidazo[4,5-c][1,8]naphthyridin-4-amine] | + | + | + | + | 231 to 233 °C | − | − | − | + | − | − | − | − | + | + | + | + | +
2 | CC(C)Cn1cnc2c(N)nc3cnccc3c21 [Example 22, 1-(2-Methylpropyl)-1H-imidazo[4,5-c][1,7]naphthyridin-4-amine] |  | − | − | − | 306 to 307 °C |  | − | ± | + |  |  |  |  | − | − | − | + | 
3 | CC(C)Cn1cnc2c(N)nc3c(c21)CCNC3 [Example 23, 6,7,8,9-Tetrahydro-1-(2-methylpropyl)-1H-imidazo[4,5-c][1,7]naphthyridin-4-amine] |  | + | + | − | 220 to 223 °C |  | − | ± | − |  |  |  |  | − | − | − | − | 
4 | Cc1nc2c(N)nc3cnccc3c2n1CC(C)C [Example 25, 2-Methyl-1-(2-methylpropyl)-1H-imidazo[4,5-c][1,7]naphthyridin-4-amine] |  | − | + | + | 322 to 324 °C |  | − | ± | − | − | − | − | − | − | + | + | + | 
5 | Cc1nc2c(N)nc3c(c2n1CC(C)C)CCNC3 [Example 26, 6,7,8,9-Tetrahydro-2-methyl-1-(2-methylpropyl)-1H-imidazo[4,5-c][1,7]naphthyridin-4-amine] |  | + | − | + | 226 to 230 °C |  | + | ± | − | − | − | − | − | − | ± | + | + | 
6 | CCCCc1nc2c(N)nc3cnccc3c2n1CC(C)C [Example 27, 2-Butyl-1-(2-methylpropyl)-1H-imidazo[4,5-c][1,7]naphthyridin-4-amine] |  | + | + | + | 213 to 214 °C |  | + | + | + | − | − | + | + | + | + | + | + | 
7 | CCCCc1nc2c(N)nc3c(c2n1CC(C)C)CCNC3 [Example 28, 2-Butyl-6,7,8,9-tetrahydro-1-(2-methylpropyl)-1H-imidazo[4,5-c][1,7]naphthyridin-4-amine] |  | + | + | + | 164 to 166 °C |  | − | + | + | − | ± | + | + | + | + | + | + | 
